Laboratory results from patent US8980914B2, “Therapeutic agent for chronic obstructive pulmonary disease and method for treatment for chronic obstructive pulmonary disease with the same” (Mariposa Health Limited, priority 2003, dated 2015).

Experiments:
[1] = system: airway hyper-responsiveness induced by peroxynitrite; assay: Airway hyper-responsiveness model induced by exposure of peroxynitrite in guinea pigs (lung resistance after histamine); format: in vivo; conditions: 30 mg/kg orally one hour before peroxynitrite, histamine 32 μg/kg i.v. on 5-day, control group 759, non-stimulation group 382
Description: This test was performed so as to investigate the pharmacological effect of the 7-aminoquinolinone derivative of the present invention on an airway hyper-responsiveness model induced by exposure of peroxynitrite in guinea pigs. The test procedure will now be described.
Guinea pigs were fasted for 18 hours or more. The animals were administrated the test substance (30 mg/kg) orally one hour before exposure of peroxynitrite and the neck was dissected under ether anesthesia, and then the trachea was exposed. 0.1 mL of 1 mmol/L peroxynitrite was administered intratracheally into pulmonary side by pushing with air and, after the administration, the incision was sutured and disinfected.
The measurement of airway hyper-responsiveness was performed on 5-day, taking the day of model preparation 0-day. Guinea pigs were fasted for 18 hours or more. The measurement of lung resistance; (RLung) was performed according to the method of R. E. Giles et al. (R. E. Giles, M. P. Finkel and J. Mazurowski: Use of an Analog On-Line Computer for the Evaluation of Pulmonary Resistance and Dynamic Compliance in the Anesthetized Dog. Arch. Int. Pharmacodyn. 194, 213-222 (1971)). That is, the animals were anesthetized with Nembutal (Trade name: 40 mg/kg, i.v., sodium pentobarbital) and subjected to cannulation into esophagus, trachea and jugular veins (for administration of histamine). The esophagus and trachea cannulas were connected to an artificial respirator (ventilation volume: 6 mL/kg, ventilation frequency: 60 times/min, SN-480-7) and the Rlung was measured after intravenous administration (dose of 0.1 mL/kg) of physiological saline solution and histamine (32 μg/kg) using a total plethysmograph system via flow sensor, connected to Validyne DF45F (for flow rate) and DP45P (for pressure). RLung before administration was determined by averaging values of any 3 out of 20 breaths, RLung after administration of physiological saline solution was determined by averaging values of any 3 out of 5 breaths, and RLung after administration of histamine was determined by averaging values of the following 3 breaths; 1) showing the maximum lung resistance, 2) taken just before and 3) taken just after the one with the maximum lung resistance, out less than 20 breaths. (The extreme values in RLung that occurred when animal moved during the measurement were excluded from the calculations.)
The percentage of increase in lung resistance was calculated by the following equation. Increase in lung resistance (%)=([RLung after administration of histamine]−[RLung before administration])/[RLung before administration]×100

[2] = Peroxynitrite scavenging activity (oxidation of dihydrorhodamine 123); format: biochemical; conditions: oxidation of dihydrorhodamine 123 by peroxynitrite, phosphate buffer pH 7.4; read-out: 50% Inhibitory concentration on oxidation (IC50)
Description: This test was performed by estimating the antioxidative effect of the test substance using peroxynitrite quantitative method as a test system with dihydrorhodamine 123 so as to confirm the ability of the 7-aminoquinolinone derivatives of the present invention to scavenge peroxynitrite. This is a method described in NITRIC OXIDE: Biology and Chemistry Vol. 1, 145-157, 1997.
The test substance was weighted in an amount of approximately 10 mg, dissolved in a 10% Tween 80 solution and adjusted to 5×10^−3 mol/L. Then, the solution was diluted with 0.1 mol/L phosphate buffer (pH=7.4) to 5×10^−4 mol/L. The diluent was further diluted stepwise with a phosphate buffer containing 1% Tween 80 to obtain substance solution. The preparation was conducted before use. The final concentration of the test substance was adjusted to 3×10^−6, 1×10^−6, 3×10^−7, 1×10^−7, and 3×10^−8 mol/L, respectively.
To 20 μL of peroxynitrite solution (manufactured by DOJINDO LABORATORIES), 1980 μL of 0.1 mol/L sodium hydroxide was added and the mixture was diluted 100 times. The absorbance of the maximum absorption wavelength near 300 nm was measured using a UV-visible spectrophotometer and the concentration was calculated according to the following equation. Concentration(mmol/L)=(absorbance/1670)×100×1000
Based on the concentration calculated in the above section, dilution with a 0.1 mol/L sodium hydroxide solution was conducted and adjusted to 10 mmol/L. 990 μL of a 0.1 mol/L sodium hydroxide solution was taken into a 1.5 mL-Eppen tube. To the Eppen tube, 10 μL of a solution adjusted to 10 mmol/L was added to prepare a 100 μmol/L solution.
Dihydrorhodamine 123 was dissolved into 1.155 mL of dimethylsulfoxide, and adjusted to the concentration of 25 mmol/L. This solution was dispensed into 20 μL aliquots and then the aliquots were stored in a biomedical freezer (about −20° C.) and used as a stock solution.
To 490 μL of 0.02% Tween 80 containing 0.1 mol/L phosphate buffer, 10 μL of 25 mmol/L of a thawed dihydrorhodamine 123 stock solution was added to make 500 μmol/L. The prepared solution was diluted with 0.1 mol/L phosphate buffer (pH=7.4) 1000 times to prepare 500 nmol/L of a dihydrorhodamine 123 solution.
(1) To a 3.5 mL brown vial containing a stirring bar, 1470 μL of a 500 nmol/L dihydrorhodamine 123 solution and then 15 μL of the test substance solution was added. For the blank and control groups, 15 μL of 0.1 mol/L phosphate buffer containing 1% Tween 80, as a solvent for the test substance solution, was added. After the addition, the mixture was stirred with a stirrer for 30 minutes.
15 μL of a 100 μmol/L peroxynitrite solution was added while stirring. For the blank group, 15 μL of a 0.1 mol/L sodium hydroxide solution was added. After stirring for 15 minutes, fluorescence intensity was measured.
Fluorescence intensity of the reaction solution was measured using a spectrophotofluorometer under the following measuring conditions: excitation wavelength, 500 nm; emission wavelength, 536 nm; measuring times, one; response, 1 sec; photomultiplier tube voltage, Low; band width at excitation side, 10 nm; bandwidth at emission side, 10 nm.
The oxidation rate of dihydrorhodamine 123 when adding the test substance was calculated, taking the oxidation rate of dihydrorhodamine 123 for control as 100, according to the following equation: Oxidation rate (%) of dihydrorhodamine 123=(measured value for each group−measured value for blank)/(measured for control−measured value for blank)×100 Calculation of Oxidation Inhibition Concentration (IC50)
50% oxidation concentration, that is 50% oxidation inhibition concentration (IC50) was calculated by giving a straight line from two points surrounding 50% oxidation rate.

[3] = system: airway hyper-responsiveness induced by ozone; assay: Airway hyper-responsiveness model induced by inhalation of ozone in guinea pigs (lung resistance after methacholine); format: in vivo; conditions: test substance 30 mg/kg one hour before ozone inhalation, RLung after methacholine inhalation 5 hours after end of ozone exposure
Description: This test was performed so as to evaluate the pharmacological effect of the 7-aminoquinolinone derivatives of the present invention in an airway hyper-responsiveness model induced by inhalation of ozone in guinea pigs. The test procedure will now be described.
Guinea pigs were fasted for 18 hours or more. The animals were administered the test substance (30 mg/kg) and theophylline (100 mg/kg) one hour before ozone inhalation. For the non-stimulation group and the vehicle control group, vehicle (5 mL/kg) was administered similarly.
The animals were put into an acryl-made chamber (29×19×25 cm), subjected to induction of ozone generated by an ozonizer (EUV3-XU; EBARA JITSUGYO CO, LTD.) and exposed for 2 hours. The ozone concentration in the chamber was approximately 3 ppm. It was confirmed every 30 minutes that this concentration was maintained during exposure by an ozone monitor (EG-5000; EBARA JITSUGYO CO, LTD.) (measured value: 2.53 to 3.40 ppm). For the non-stimulation group, the animals were exposed to a mixed gas (oxygen: 95%, carbonic acid gas: 5%) similarly. The ozone concentration at that time was also confirmed similarly (acceptable concentration: 0.01 ppm or less, measured value: 0.00 to 0.01 ppm).
The measurement of airway hyper-responsiveness was performed 5 hours after the end of ozone exposure. The measurement of lung resistance (RLung) was performed according to the method of R. E. Giles et al. in the same manner as in Example 2. That is, the animals were anesthetized with Nembutal (Trade name: 50 mg/kg, i.p., sodium pentobarbital) and subjected to cannulation into esophagus and trachea. The esophagus and trachea cannulas were connected to a respirator (ventilation volume: 6 mL/kg, ventilation frequency: 60 times/min, SN-480-7) and the RLung after inhalation of methacholine (100 μg/mL, for 1.5 minutes) was measured by the respiratory function analyzer (PULMOS-II; M.I.P.S) through a flow sensor (connected to Validyle DF45F (for flow rate) and DP45P (for pressure)). The inhalation of methacholine was performed with an ultrasonic nebuliser (NE-U17; Omron Matsuzaka) connected to the respirator under artificial respiration.
Used RLung represents 10 breaths having a stable value in a range from 1 to 30 breaths after initiation of each measurement for both before inhalation and during methacholine inhalation. The average of the RLung was calculated. The extreme values in RLung that occurred when animal moved during the measurement were excluded from the calculations.
The percentage of increase of RLung was calculated by the following equation. Increase in lung resistance (%)=([RLung after inhalation of methacholine]−[RLung before administration])/[RLung before administration]×100

IC50 [2]	Compound	Increase in lung resistance (%) [1]	Increase in lung resistance (%) [3]
800 nM	CCCCCCOc1c(O)c2ccc(NC(=O)C=Cc3cc(OC)c(O)c(OC)c3)cc2n(C)c1=O [Compound 549]	423%	28%
710 nM	CCCCCCCCOc1c(O)c2ccc(NC(=O)C=Cc3cc(OC)c(O)c(OC)c3)cc2n(C)c1=O [Compound 551]	416%	22%
980 nM	COc1cc(C=CC(=O)Nc2ccc3c(O)c(OCC=C(C)CCC=C(C)C)c(=O)n(C)c3c2)cc(OC)c1O [Compound 553]	417%	28%
890 nM	CCCCCCOc1c(O)c(=O)n(C)c2cc(NC(=O)C=Cc3cc(OC)c(O)c(OC)c3)ccc12 [Compound 556]	426%	25%
760 nM	CCCCCCOc1c(O)c2ccc(NC(=O)C=Cc3ccc(O)c(OC)c3)cc2n(C)c1=O [Compound 581]	430%	30%
